{"source": "ChEMBL document CHEMBL1201862", "about": "“PubChem BioAssay data set” (2004)", "key": {"cells": {"test": "cells", "assay_type": "functional, cell-based"}, "[1]": {"molecular_target": "Nuclear receptor subfamily 0 group B member 1 (Homo sapiens, UniProt P51843)", "sequence (P51843 whole entry)": "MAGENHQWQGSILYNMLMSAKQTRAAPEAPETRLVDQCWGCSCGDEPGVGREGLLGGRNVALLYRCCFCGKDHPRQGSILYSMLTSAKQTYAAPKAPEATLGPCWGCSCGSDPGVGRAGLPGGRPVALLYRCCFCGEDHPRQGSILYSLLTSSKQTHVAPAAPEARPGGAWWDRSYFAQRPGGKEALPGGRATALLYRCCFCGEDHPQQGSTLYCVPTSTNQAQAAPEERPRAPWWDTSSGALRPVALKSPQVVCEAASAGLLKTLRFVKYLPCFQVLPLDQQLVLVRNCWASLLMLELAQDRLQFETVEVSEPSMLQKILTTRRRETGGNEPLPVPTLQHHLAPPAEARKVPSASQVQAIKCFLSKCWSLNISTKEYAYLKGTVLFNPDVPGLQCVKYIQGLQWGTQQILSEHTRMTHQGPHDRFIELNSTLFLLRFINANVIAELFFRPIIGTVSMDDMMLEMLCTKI", "assay_type": "functional, cell-based"}, "[2]": {"molecular_target": "Fructose-bisphosphate aldolase (Mycobacterium tuberculosis, UniProt P9WQA3)", "sequence (P9WQA3 whole entry)": "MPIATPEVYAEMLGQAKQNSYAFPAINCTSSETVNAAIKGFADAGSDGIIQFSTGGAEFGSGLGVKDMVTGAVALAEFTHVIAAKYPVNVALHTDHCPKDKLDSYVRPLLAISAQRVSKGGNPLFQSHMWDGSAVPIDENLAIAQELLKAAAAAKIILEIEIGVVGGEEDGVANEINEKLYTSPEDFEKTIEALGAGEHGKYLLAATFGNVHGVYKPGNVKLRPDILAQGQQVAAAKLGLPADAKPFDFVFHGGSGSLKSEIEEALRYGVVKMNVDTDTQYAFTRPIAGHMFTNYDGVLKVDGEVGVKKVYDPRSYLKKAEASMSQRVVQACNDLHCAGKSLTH", "test": "Fluorescence-based biochemical high throughput dose response assay for inhibitors of the fructose-bisphosphate aldolase (FBA) of M. tuberculosis.", "assay_type": "functional"}, "[3]": {"test": "IOSE-T80 ovarian epithelial cell cytotoxicity, dose response, cytotoxicity control for PAX8 inhibitor project, plate reader, dry powder samples (AID 743045)", "assay_type": "functional, cell-based"}, "[4]": {"test": "A2780 ovarian cancer cell cytotoxicity, dose response, cytotoxicity control, plate reader, dry powder samples (AID 743046)", "assay_type": "functional, cell-based"}, "[5]": {"test": "cytotoxicity in OVCAR8 ovarian cancer cells, dose response, PAX8 project, cell-based, plate reader, dry powder samples (AID 743197)", "assay_type": "functional", "details": "OVCAR-8"}, "Paired box protein Pax-8": {"molecular_target": "Paired box protein Pax-8 (Homo sapiens, UniProt Q06710)", "sequence (Q06710 whole entry)": "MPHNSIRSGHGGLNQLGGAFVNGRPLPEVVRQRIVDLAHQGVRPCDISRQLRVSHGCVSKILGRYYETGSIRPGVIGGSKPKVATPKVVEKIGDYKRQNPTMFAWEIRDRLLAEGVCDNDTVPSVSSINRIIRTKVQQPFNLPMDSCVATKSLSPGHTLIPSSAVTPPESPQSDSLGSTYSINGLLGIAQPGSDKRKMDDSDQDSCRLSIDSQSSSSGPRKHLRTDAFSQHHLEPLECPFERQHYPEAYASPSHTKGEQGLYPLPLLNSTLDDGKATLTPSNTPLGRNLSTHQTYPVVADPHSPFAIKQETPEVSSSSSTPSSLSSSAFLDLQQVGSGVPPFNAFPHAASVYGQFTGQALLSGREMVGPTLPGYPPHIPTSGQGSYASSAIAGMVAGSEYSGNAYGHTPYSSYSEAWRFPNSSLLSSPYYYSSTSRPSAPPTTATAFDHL", "test": "inhibitors of PAX8-driven TPO luciferase reporter, dose response, RMG-I cells, cherry-pick (AID 687027);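 also: luciferase reporter driven by Pax8 target thyroperoxidase promoter measured by SteadyGlo luminescence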", "assay_type": "functional, cell-based"}, "[6]": {"test": "NIH:OVCAR-3 ovarian cancer cell cytotoxicity, dose response, PAX8 inhibitor project, plate reader, dry powder samples (AID 743044)", "assay_type": "functional, cell-based"}, "[7]": {"test": "cytotoxicity in OV-90 ovarian cancer cells, dose response, PAX8 inhibitor project, cell-based, plate reader, dry powder, SA8 (AID 743149)", "assay_type": "functional"}, "[8]": {"test": "cytotoxicity dependent on PAX8, dose response, cell-based, plate reader, dry powder (AID 743049)", "assay_type": "functional"}, "[9]": {"test": "cytotoxicity in OVCAR4 cells, dose response, cytotoxicity control for PAX8 inhibitor project, cell-based, plate reader, dry powder, SA11 (AID 743150)", "assay_type": "functional", "details": "OVCAR-4"}, "[10]": {"test": "cytotoxicity in COV434 cells, dose response, cytotoxicity control for PAX8 inhibitor project, cell-based, plate reader, dry powder, SA7 (AID 743145)", "assay_type": "functional"}, "[11]": {"test": "PAX2 cell-based inhibition, dose response, selectivity assay for PAX8 inhibitor project, plate reader, dry powder samples (AID 743048);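 also: HEK293 cells carrying a WT1 promoter luciferase reporter driven by expressed Pax2; potency is for inhibition of Pax2 driven reporter signal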", "assay_type": "functional"}, "[12]": {"test": "PAX5 activity inhibitors, dose response, selectivity assay for PAX8 inhibitor project, cell-based, plate reader, dry powder samples (AID 743047);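 also: HEK293 cells carrying a Pax5 driven CD19 promoter luciferase reporter; potency of inhibitors that lower reporter luminescence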", "assay_type": "functional"}, "[13]": {"test": "Counterscreen for activators of the function of SWI/SNF related, matrix associated, actin dependent regulator of chromatin, subfamily a, member 2 (SMARCA2, BRM): Luminescence-based cell-based high throughput dose response assay to identify non-selective compounds using the VP16 reporter assay.", "assay_type": "functional"}, "[14]": {"molecular_target": "T1, Delta-type opioid receptor (Homo sapiens, UniProt P41143)", "T1 sequence (P41143 whole entry)": "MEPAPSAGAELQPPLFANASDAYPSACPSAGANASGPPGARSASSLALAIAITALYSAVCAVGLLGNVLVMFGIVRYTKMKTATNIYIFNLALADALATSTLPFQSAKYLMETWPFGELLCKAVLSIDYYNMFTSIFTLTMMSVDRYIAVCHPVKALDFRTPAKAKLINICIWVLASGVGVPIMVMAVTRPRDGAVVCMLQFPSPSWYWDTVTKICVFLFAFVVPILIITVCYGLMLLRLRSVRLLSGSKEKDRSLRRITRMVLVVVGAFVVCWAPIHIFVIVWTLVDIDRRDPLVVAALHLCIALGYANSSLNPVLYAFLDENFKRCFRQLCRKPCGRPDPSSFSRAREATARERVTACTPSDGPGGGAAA", "test": "HTS Image-Based Screen for Agonists of the DOR Receptor. [Related pubchem assays (depositor defined):AID1777, AID1786, AID2133]", "assay_type": "functional"}, "Mu-type opioid receptor": {"molecular_target": "Mu-type opioid receptor (Homo sapiens, UniProt P35372)", "sequence (P35372 whole entry)": "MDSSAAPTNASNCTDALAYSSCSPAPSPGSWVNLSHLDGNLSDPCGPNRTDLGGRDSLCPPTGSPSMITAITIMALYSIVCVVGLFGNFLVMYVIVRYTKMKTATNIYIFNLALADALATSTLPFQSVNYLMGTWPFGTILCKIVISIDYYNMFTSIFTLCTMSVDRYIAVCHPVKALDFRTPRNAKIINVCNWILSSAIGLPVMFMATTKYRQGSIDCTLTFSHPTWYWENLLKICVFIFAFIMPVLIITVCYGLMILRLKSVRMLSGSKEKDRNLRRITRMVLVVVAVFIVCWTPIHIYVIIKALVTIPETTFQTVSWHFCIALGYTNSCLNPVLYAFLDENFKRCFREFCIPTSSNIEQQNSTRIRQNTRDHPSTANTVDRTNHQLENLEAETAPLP", "test": "HTS Image-Based Screen for Agonists of the MOR Receptor. [Related pubchem assays (depositor defined):AID1777, AID1785, AID1786, AID2133]", "assay_type": "functional"}, "[15]": {"molecular_target": "T1, Delta-type opioid receptor", "test": "HTS Image-Based Screen for Antagonists of the DOR Receptor. [Related pubchem assays (depositor defined):AID1777, AID1785, AID1786, AID2133]", "assay_type": "functional"}, "Beta-galactosidase": {"molecular_target": "Beta-galactosidase (Escherichia coli, UniProt Q8VNN2)", "sequence (Q8VNN2 whole entry)": "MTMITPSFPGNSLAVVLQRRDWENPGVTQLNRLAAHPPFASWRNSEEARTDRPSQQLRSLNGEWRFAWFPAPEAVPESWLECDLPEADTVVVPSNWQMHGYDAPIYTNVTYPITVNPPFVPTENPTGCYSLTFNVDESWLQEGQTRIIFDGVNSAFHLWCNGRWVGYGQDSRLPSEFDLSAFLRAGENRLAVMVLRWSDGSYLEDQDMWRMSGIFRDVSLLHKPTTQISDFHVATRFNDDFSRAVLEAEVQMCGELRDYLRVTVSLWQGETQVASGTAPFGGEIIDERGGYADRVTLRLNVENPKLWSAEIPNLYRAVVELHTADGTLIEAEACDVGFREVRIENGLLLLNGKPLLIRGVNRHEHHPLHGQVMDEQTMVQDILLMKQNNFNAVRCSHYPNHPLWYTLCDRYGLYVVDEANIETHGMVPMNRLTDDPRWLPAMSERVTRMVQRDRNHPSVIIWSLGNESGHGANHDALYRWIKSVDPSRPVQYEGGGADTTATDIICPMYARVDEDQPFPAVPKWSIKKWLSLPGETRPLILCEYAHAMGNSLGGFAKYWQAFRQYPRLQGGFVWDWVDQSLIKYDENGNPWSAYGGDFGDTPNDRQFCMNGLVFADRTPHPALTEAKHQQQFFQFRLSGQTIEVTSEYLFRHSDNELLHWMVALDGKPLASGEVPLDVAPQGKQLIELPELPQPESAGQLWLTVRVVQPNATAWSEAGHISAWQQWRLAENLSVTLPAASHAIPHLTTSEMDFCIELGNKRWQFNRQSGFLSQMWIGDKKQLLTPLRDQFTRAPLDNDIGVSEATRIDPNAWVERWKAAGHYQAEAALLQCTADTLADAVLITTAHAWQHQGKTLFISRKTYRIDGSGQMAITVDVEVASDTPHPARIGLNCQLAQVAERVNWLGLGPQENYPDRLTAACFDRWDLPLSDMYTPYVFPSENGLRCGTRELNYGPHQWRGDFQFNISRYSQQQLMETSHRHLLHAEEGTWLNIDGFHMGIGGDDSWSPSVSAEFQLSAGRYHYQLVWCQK", "assay_type": "functional"}, "[16]": {"molecular_target": "T2, Kappa-type opioid receptor (Homo sapiens, UniProt P41145)", "T2 sequence (P41145 whole entry)": "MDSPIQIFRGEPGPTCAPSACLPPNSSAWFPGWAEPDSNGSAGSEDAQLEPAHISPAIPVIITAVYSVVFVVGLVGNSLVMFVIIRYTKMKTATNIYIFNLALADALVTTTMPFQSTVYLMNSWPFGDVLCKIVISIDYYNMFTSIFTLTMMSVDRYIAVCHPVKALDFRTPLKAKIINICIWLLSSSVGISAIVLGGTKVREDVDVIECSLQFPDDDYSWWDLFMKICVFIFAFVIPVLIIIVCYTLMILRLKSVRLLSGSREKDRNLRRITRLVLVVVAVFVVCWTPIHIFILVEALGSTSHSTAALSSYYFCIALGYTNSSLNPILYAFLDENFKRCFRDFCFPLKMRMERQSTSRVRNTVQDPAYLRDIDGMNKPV", "assay_type": "functional"}, "[17]": {"molecular_target": "SWI/SNF-related matrix-associated actin-dependent regulator of chromatin subfamily A member 2 (Homo sapiens, UniProt P51531)", "test": "Luminescence-based cell-based high throughput dose response assay to identify activators of the function of SWI/SNF related, matrix associated, actin dependent regulator of chromatin, subfamily a, member 2 (SMARCA2, BRM).", "assay_type": "functional"}, "[18]": {"molecular_target": "T2, Kappa-type opioid receptor", "assay_type": "functional", "remark": "listed apart in the source"}, "[19]": {"molecular_target": "Disintegrin and metalloproteinase domain-containing protein 17 (Homo sapiens, UniProt P78536)", "sequence (P78536 whole entry, the tested form may be a part)": "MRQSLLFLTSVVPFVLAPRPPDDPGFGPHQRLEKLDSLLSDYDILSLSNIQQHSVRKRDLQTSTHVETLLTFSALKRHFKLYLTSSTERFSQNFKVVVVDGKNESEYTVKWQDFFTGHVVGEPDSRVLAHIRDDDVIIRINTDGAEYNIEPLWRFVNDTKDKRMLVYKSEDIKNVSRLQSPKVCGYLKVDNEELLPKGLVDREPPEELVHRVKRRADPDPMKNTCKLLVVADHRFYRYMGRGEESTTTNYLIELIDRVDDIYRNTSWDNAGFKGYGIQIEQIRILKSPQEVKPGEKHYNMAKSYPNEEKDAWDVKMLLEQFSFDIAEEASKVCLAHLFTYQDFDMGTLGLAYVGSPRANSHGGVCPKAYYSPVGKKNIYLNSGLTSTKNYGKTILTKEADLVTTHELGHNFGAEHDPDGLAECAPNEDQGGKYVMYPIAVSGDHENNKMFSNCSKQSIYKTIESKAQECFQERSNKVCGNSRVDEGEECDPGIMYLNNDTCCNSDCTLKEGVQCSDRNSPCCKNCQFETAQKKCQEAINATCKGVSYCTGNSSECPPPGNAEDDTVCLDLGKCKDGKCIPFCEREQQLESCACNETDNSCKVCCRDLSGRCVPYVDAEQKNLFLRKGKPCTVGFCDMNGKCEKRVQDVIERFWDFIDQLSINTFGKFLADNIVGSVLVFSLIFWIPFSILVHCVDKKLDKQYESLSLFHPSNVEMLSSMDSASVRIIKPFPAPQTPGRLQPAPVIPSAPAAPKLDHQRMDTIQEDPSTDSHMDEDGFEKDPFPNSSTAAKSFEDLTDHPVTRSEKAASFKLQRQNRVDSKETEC", "test": "ADAM17 protease inhibitors, dose response, counter-screen for ADAM10 exosite inhibitor project, biochemical, quenched FRET substrate (AID 743253)"}, "[20]": {"test": "human group III sPLA2 inhibitors, dose response, biochemical, QFRET, IC50 (AID 743457);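 also: green fluorescence rise as the enzyme cleaves BODIPY PC-A2 in liposomes; potency for inhibition of the enzyme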"}, "[21]": {"test": "ADAM10 inhibitors, peptide cleavage, dose response, biochemical, QFRET (AID 743254);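 also: ADAM10 enzyme with the DM2 quenched FRET peptide as substrate; EDANS fluorescence gain as the protease cuts the substrate; inhibitor potency against ADAM10 proteolytic activity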"}, "[22]": {"test": "Late stage assay provider results from the probe development effort to identify inhibitors of the Plasmodium falciparum M18 Aspartyl Aminopeptidase (M18AAP): radiolabel-based cell-based dose response assay to identify compounds that inhibit P. falciparum growth in RBCs, Set 2..", "assay_type": "functional"}, "[23]": {"test": "P. falciparum 3D7-ScDHODH growth inhibitors, dose response, SYBR Green, dry powder samples (AID 1159570);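 also: parasite growth measured after 72 hours of compound exposure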", "assay_type": "functional, cell-based"}, "[24]": {"test": "P. falciparum Dd2 growth inhibitors, dose response, SYBR Green, cherry-picked samples (AID 1159567)", "assay_type": "functional, cell-based"}, "[25]": {"test": "P. falciparum ATP4 D1247Y mutant growth inhibitors, dose response, NITD609-resistant line, SYBR Green, dry powder (AID 1159571);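 also: parasites synchronized at ring stage by sorbitol before testing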", "assay_type": "functional, cell-based"}, "[26]": {"test": "P. falciparum Dd2 growth inhibitors, dose response, SYBR Green, dry powder samples (AID 1159566);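 also: potency for growth inhibition with lower SYBR green DNA signal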", "assay_type": "functional, cell-based"}, "[27]": {"test": "CellTiter-Glo luminescent dose response of DLD-1 viability loss (AID 1117352)", "assay_type": "functional"}, "[28]": {"test": "cytotoxicity toward Colo320 cells – cell-based, CellTiter-Glo luminescence, IC50, dose response (AID 1117334)", "assay_type": "functional", "details": "COLO 320"}, "[29]": {"test": "RKO cell viability reduction, dose response, CellTiter-Glo luminescence (AID 1117322)", "assay_type": "functional"}, "[30]": {"test": "SNU-C1 cell viability reduction, dose response, CellTiter-Glo luminescence (AID 1117323)", "assay_type": "functional, cell-based"}, "[31]": {"test": "cytotoxicity toward HT-29 cells – cell-based, CellTiter-Glo luminescence, IC50, dose response (AID 1117330)", "assay_type": "functional"}, "[32]": {"test": "cytotoxicity toward HCT116 cells – cell-based, CellTiter-Glo luminescence, IC50, dose response (AID 1117332)", "assay_type": "functional", "details": "HCT-116"}, "[33]": {"test": "HeLa 2N DNA content increase, dose response, cell-based, IC50 (AID 1117349)", "assay_type": "functional"}, "[34]": {"test": "HCT116 cell viability decrease, GSK3B pretreatment – CellTiter-Glo, IC50, dose response (AID 1117339)", "assay_type": "functional", "details": "HCT-116"}, "[35]": {"test": "HeLa 4N DNA content increase, dose response, cell-based, IC50 (AID 1117351)", "assay_type": "functional"}, "[36]": {"test": "Concentration-dependent survival of SW480 colon cancer line, luminescence detection with CellTiter-Glo, half-maximal inhibitory concentration (AID 1117338)", "assay_type": "functional"}}, "note": "Active and inactive are the calls of the source.", "data": [{"smiles": "CCOc1ccc(NC(=O)c2ccc3c(c2)N(C)CCS3)cc1", "values": [{"measurement": "IC50", "setting": "cells", "result": "> 67.6 µM (inactive)"}, {"measurement": "IC50", "setting": "[1]", "result": "> 67.6 µM (inactive)"}]}, {"smiles": "C(=C\\c1ccc2nncn2c1)/c1ccccc1", "values": [{"measurement": "IC50", "setting": "[2]", "result": "1.45 µM (active)"}]}, {"smiles": "C[C@H]1CCCCO[C@@H](CN(C)Cc2ccc(C(F)(F)F)cc2)[C@@H](C)CN([C@@H](C)CO)C(=O)c2cc(NS(=O)(=O)c3ccc(Cl)cc3)ccc2O1", "values": [{"measurement": "AC50", "setting": "[3]", "result": "36.4 µM (active)"}, {"measurement": "AC50", "setting": "[4]", "result": "528 nM (active)"}, {"measurement": "AC50", "setting": "[5]", "result": "19.7 µM (active)"}, {"measurement": "AC50", "setting": "Paired box protein Pax-8", "result": "4.39 µM (active)"}, {"measurement": "AC50", "setting": "[6]", "result": "11 µM (active)"}]}, {"smiles": "N#C[C@@H]1[C@H](c2ccc(C#CC3CCCCC3)cc2)[C@H](CO)N1S(=O)(=O)c1ccccc1", "values": [{"measurement": "AC50", "setting": "[7]", "result": "22.2 µM (active)"}, {"measurement": "AC50", "setting": "[8]", "result": "25.6 µM (active)"}, {"measurement": "AC50", "setting": "[9]", "result": "> 70 µM (inactive)"}, {"measurement": "AC50", "setting": "Paired box protein Pax-8", "result": "11.1 µM (active)"}, {"measurement": "AC50", "setting": "[10]", "result": "36.6 µM (active)"}, {"measurement": "AC50", "setting": "[11]", "result": "> 32 µM (inactive)"}, {"measurement": "AC50", "setting": "[12]", "result": "29.9 µM (active)"}]}, {"smiles": "COc1ccc(-c2cc(=O)n(-c3nc4ccccc4[nH]3)[nH]2)cc1", "values": [{"measurement": "EC50", "setting": "[13]", "result": "> 91.2 µM (inactive)"}, {"measurement": "EC50", "setting": "[14]", "result": "> 32 µM (inactive)"}, {"measurement": "EC50", "setting": "Mu-type opioid receptor", "result": "> 32 µM (inactive)"}, {"measurement": "IC50", "setting": "[15]", "result": "> 32 µM (inactive)"}, {"measurement": "EC50", "setting": "Beta-galactosidase", "result": "> 31.5 µM (inactive)"}, {"measurement": "IC50", "setting": "[16]", "result": "9.08 µM (active)"}, {"measurement": "EC50", "setting": "[17]", "result": "> 91.2 µM (inactive)"}, {"measurement": "IC50", "setting": "[18]", "result": "> 32", "unit": "µM"}]}, {"smiles": "CCN(CC)c1ccc(NC(=O)CSc2nc3ccccc3c(=O)n2-c2ccc(C)cc2)cc1", "values": [{"measurement": "IC50", "setting": "[19]", "result": "> 69.5 µM (inactive)"}, {"measurement": "IC50", "setting": "[20]", "result": "60.3 µM (inactive)"}, {"measurement": "IC50", "setting": "[21]", "result": "> 69.5 µM (inactive)"}]}, {"smiles": "CCOc1ccc2nccc(NCCc3ccc(OC)c(OC)c3)c2c1", "values": [{"measurement": "IC50", "setting": "[22]", "result": "1.4 µM (active)"}]}, {"smiles": "Oc1ccc(CCNc2ccnc3cc(Cl)ccc23)cc1O", "values": [{"measurement": "IC50", "setting": "[22]", "result": "0.62 µM (active)"}]}, {"smiles": "O=C(c1ccccc1F)N1CC(=O)N2[C@H](C1)[C@@H](c1ccc(-c3ccc(F)cc3)cc1)[C@@H]2CO", "values": [{"measurement": "AC50", "setting": "[23]", "result": "1.72 µM (active)"}, {"measurement": "AC50", "setting": "[24]", "result": "1.41 µM (active)"}, {"measurement": "AC50", "setting": "[25]", "result": "1.09 µM (active)"}, {"measurement": "AC50", "setting": "[26]", "result": "497 nM (active)"}]}, {"smiles": "CC[C@H]1CN2CCc3cc(OC)c(OC)cc3[C@@H]2C[C@@H]1C[C@H]1NCCc2cc(OC)c(OC)cc21", "note": "[EMETINE]", "values": [{"measurement": "IC50", "setting": "[27]", "result": "11.6 nM (active)"}, {"measurement": "IC50", "setting": "[28]", "result": "22.1 nM (active)"}, {"measurement": "IC50", "setting": "[29]", "result": "8.31 nM (active)"}, {"measurement": "IC50", "setting": "[30]", "result": "2.28 nM (active)"}, {"measurement": "IC50", "setting": "[31]", "result": "16.3 nM (active)"}, {"measurement": "IC50", "setting": "[32]", "result": "61.5 nM (active)"}, {"measurement": "IC50", "setting": "[33]", "result": "> 10 µM (inactive)"}, {"measurement": "IC50", "setting": "[34]", "result": "1 nM (active)"}, {"measurement": "IC50", "setting": "[35]", "result": "> 10 µM (inactive)"}, {"measurement": "IC50", "setting": "[36]", "result": "1 nM (active)"}]}]}
